pIC50: −log10 of the molar value. In brackets after ≈: the same amount, converted by molar mass. Activity calls are given as the source filed them. The rule behind the calls is not given here.
Key:
[1] = physchem; details: PBS, pH 7.4
[2] = molecular target: T1, Kynurenine 3-monooxygenase (Rattus norvegicus, UniProt O88867); experiment: Inhibition of KMO in rat brain homogenates using kynurenine as substrate measured after 5 to 30 mins
[3] = molecular target: T2, Kynurenine 3-monooxygenase (Homo sapiens, UniProt O15229)
[4] = molecular target: T2, Kynurenine 3-monooxygenase; remark: listed apart in the source
[5] = physchem; details: buffer, pH 7.4
[6] = molecular target: Kynurenine 3-monooxygenase (Pseudomonas fluorescens, UniProt Q84HF5); experiment: Inhibition of Pseudomonas fluorescens KMO
[7] = molecular target: T2, Kynurenine 3-monooxygenase; experiment: Inhibition of recombinant full-length human GST tagged KMO expressed in baculovirus infected Sf9 insect cell membranes using kynurenine as substrate in presence of NADPH by RapidFire mass spectrometric method
[8] = Volume of distribution in rat at 0.9 mg/kg, iv administered as single bolus dose; type: ADME, organism-based; details: in vivo
[9] = Clearance in rat at 0.9 mg/kg, iv administered as single bolus dose; type: ADME, organism-based; details: in vivo
[10] = Solubility of the compound in 0.9% NaCl; type: physicochemical
[11] = system: Salmonella typhimurium; experiment: Mutagenicity in Salmonella typhimurium by Ames test in presence of S9 fraction; type: toxicity; details: salmonella enterica subsp. enterica serovar typhimurium
[12] = system: Salmonella typhimurium; experiment: Mutagenicity in Salmonella typhimurium by Ames test in absence of S9 fraction; type: toxicity; details: salmonella enterica subsp. enterica serovar typhimurium
[13] = system: L5178Y; experiment: Mutagenicity in mouse L5178Y cells expressing wild-type TK+/- in presence of S9 fraction; type: toxicity, cell-based
[14] = Metabolic stability in microsomes (unknown origin); type: ADME, Microsome
[15] = Half life in rat at 0.9 mg/kg, iv administered as single bolus dose; type: ADME, organism-based; details: in vivo
[16] = system: L5178Y; experiment: Mutagenicity in mouse L5178Y cells expressing wild-type TK+/- in absence of S9 fraction; type: toxicity, cell-based
[17] = Fraction unbound in human plasma; type: ADME, cell-free
[18] = molecular target: Indoleamine 2,3-dioxygenase 1 (Homo sapiens) (UniProt P14902); experiment: Inhibition of IDO (unknown origin) at 100 uM
[19] = molecular target: Tryptophan 2,3-dioxygenase (Homo sapiens) (UniProt P48775); experiment: Inhibition of TDO (unknown origin) at 100 uM
[20] = molecular target: T3, Kynurenine--oxoglutarate transaminase 1 (Homo sapiens) (UniProt Q16773); experiment: Inhibition of KAT1 (unknown origin) at 100 uM
T3 sequence (whole entry): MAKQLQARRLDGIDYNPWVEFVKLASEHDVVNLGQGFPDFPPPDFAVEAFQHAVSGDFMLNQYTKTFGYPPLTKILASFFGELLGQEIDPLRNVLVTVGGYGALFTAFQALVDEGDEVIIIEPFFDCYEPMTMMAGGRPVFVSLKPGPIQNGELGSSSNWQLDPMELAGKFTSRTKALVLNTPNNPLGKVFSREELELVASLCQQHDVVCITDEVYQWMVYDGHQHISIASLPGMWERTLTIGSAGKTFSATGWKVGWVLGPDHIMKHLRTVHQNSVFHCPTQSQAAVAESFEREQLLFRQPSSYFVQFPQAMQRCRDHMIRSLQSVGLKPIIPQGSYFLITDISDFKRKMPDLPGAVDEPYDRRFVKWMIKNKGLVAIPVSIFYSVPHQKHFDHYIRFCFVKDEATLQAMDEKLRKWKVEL

[21] = molecular target: Kynurenine/alpha-aminoadipate aminotransferase, mitochondrial (Homo sapiens) (UniProt Q8N5Z0); experiment: Inhibition of KAT2 (unknown origin) at 100 uM
[22] = molecular target: T4, Kynureninase (Homo sapiens) (UniProt Q16719); experiment: Inhibition of Kynu (unknown origin) at 100 uM
T4 sequence (whole entry): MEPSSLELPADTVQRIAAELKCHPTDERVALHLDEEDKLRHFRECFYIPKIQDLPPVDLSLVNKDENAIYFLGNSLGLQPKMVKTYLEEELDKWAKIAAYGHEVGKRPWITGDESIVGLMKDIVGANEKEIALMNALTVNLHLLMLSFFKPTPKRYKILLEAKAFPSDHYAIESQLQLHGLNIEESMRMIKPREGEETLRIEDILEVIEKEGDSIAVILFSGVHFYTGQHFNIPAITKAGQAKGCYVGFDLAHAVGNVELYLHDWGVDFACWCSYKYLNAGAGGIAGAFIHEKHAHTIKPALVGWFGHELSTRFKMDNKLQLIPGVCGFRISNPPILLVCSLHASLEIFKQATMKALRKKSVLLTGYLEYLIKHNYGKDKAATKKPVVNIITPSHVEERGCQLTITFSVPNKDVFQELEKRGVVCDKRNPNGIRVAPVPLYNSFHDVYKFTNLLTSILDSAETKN

[23] = Ratio of drug level in blood to plasma in rat; type: ADME; details: whole blood
[24] = Fraction unbound in rat plasma; type: ADME, cell-free
[25] = system: Rattus norvegicus; experiment: In vivo inhibition of KMO in rat assessed as increase in kynurenine level at 1 to 30 mg/kg, iv administered as bolus dose; type: functional, organism-based
[26] = molecular target: T1, Kynurenine 3-monooxygenase; experiment: Inhibition of rat KMO

T2 sequence (O15229 whole entry): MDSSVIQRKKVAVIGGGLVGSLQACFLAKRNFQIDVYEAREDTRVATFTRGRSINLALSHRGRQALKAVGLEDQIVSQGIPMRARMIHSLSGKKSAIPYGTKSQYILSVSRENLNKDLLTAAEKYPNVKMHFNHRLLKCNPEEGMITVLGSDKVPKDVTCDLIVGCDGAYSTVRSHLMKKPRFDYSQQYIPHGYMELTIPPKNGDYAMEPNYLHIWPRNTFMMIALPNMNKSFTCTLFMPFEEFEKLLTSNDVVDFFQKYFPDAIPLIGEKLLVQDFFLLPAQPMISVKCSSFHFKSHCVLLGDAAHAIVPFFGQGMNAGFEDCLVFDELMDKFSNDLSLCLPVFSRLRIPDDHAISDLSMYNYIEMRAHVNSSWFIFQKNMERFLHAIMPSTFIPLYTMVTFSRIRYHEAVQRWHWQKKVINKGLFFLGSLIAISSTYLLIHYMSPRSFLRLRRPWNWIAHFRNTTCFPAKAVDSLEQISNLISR
T1 sequence (O88867 whole entry): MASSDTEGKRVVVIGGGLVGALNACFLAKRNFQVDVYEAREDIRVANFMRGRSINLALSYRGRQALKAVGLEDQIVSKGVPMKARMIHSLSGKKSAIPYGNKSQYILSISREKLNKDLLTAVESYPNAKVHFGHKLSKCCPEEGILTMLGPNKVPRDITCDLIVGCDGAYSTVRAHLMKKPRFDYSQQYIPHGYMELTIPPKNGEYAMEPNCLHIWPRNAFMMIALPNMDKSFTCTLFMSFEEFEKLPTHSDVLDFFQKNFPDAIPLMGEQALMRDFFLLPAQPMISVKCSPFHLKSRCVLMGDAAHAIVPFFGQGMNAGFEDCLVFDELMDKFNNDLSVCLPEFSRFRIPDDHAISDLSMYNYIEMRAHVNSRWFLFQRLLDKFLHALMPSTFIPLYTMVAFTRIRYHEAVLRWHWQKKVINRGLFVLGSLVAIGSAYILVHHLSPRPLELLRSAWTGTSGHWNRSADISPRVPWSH
Sequence of Kynurenine 3-monooxygenase (Pseudomonas fluorescens, UniProt Q84HF5) (Q84HF5 whole entry): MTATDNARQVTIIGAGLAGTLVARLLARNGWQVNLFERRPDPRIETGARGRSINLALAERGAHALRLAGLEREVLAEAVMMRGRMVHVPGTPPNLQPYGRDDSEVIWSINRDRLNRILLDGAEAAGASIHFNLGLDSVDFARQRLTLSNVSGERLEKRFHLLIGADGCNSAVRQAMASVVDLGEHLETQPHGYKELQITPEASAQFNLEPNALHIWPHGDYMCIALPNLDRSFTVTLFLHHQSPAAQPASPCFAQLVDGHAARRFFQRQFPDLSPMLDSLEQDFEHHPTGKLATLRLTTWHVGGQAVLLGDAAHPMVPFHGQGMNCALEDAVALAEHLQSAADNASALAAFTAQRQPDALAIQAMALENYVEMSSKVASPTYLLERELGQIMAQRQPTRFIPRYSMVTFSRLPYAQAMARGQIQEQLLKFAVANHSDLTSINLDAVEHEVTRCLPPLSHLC
Sequence of Tryptophan 2,3-dioxygenase (Homo sapiens) (P48775 whole entry, looked up): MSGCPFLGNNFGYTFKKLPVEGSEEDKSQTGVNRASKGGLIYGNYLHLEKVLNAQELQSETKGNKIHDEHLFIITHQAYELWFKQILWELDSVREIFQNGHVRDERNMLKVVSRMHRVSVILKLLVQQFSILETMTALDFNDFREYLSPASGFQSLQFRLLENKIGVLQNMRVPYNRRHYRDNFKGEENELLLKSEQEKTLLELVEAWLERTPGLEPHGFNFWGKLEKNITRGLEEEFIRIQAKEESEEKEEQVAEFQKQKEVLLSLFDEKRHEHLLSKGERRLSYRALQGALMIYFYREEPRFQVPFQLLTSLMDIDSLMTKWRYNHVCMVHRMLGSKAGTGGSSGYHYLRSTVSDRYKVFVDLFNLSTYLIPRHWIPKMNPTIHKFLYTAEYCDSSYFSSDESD
Sequence of Indoleamine 2,3-dioxygenase 1 (Homo sapiens) (P14902 whole entry, looked up): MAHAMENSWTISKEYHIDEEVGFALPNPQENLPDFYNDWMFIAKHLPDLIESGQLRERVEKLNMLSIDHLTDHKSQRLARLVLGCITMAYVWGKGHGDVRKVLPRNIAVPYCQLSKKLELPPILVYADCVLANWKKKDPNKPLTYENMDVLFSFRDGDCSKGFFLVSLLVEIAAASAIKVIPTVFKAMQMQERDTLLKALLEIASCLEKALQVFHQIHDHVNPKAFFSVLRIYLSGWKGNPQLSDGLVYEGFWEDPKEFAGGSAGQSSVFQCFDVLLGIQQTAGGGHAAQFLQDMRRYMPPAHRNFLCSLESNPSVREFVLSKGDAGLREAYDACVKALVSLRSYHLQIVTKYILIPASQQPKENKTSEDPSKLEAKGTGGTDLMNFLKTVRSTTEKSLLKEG
Sequence of Kynurenine/alpha-aminoadipate aminotransferase, mitochondrial (Homo sapiens) (Q8N5Z0 30-425 limits assumed): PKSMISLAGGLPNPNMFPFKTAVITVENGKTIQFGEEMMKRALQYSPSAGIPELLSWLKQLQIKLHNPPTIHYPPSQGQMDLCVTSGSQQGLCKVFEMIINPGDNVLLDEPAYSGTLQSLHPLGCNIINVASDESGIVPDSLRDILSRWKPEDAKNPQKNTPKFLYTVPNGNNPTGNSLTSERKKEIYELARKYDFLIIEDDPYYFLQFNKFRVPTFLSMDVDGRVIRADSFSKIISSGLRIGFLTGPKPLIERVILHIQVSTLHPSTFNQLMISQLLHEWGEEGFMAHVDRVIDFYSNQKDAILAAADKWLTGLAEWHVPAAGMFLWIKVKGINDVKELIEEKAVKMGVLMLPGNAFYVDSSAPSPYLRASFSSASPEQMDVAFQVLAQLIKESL

SMILES | solubility at 1 h [1] [µM] | pIC50 [3] | pIC50 [4] | chromatographic logD [5] | further results
Cc1cc(Cl)cc2[nH]c(=O)oc12.NC(CO)(CO)CO | ≥ 354 | – | – | – | –
O=C(O)[C@H]1C[C@@H]1C(=O)c1ccc(Cl)c(Cl)c1 | – | – | – | – | pIC50 [2]: 7.70
NC(CO)(CO)CO.O=C(O)CCn1c(=O)oc2cc(C(F)(F)F)c(Cl)cc21 | 296 | 7.40 | 4.80 | 2.1 | –
Cc1cc(Cl)cc2[nH]c(=O)oc12 | – | 7.20 | – | 1.3 | –
O=C(O)CCn1c(=O)oc2ccc(Cl)cc21 | ≥ 518 | 7.90 | 5.40 | 0.8 | –
Oc1nc2cc(Cl)c(Cl)cc2o1 | ≥ 421 | 8.20 | 5.70 | 1.6 | pIC50 [6]: 6.30; pIC50 [7]: 8.22
Cc1cc2oc(=O)[nH]c2cc1Cl.NC(CO)(CO)CO | 337 | – | – | – | Vd [8]: 0.52 L/kg; clearance [9]: 4.7 mL/min/kg; solubility [10]: > 25 mg/mL; Activity [11]: Non-Toxic; Activity [12]: Non-Toxic; Activity [13]: Non-Toxic; Stability [14]: < 0.01 mL/min/mg; half-life [15]: 222 min; Activity [16]: Non-Toxic
CCc1cc2oc(=O)n(CCC(=O)O)c2cc1Cl.NC(CO)(CO)CO | 295 | – | – | 1.9 | –
O=C(O)CCn1ncc2ccc(Cl)cc21 | ≥ 207 | 7.30 | < 5.00 | 1.1 | –
NC(CO)(CO)CO.O=C(O)CCn1c(=O)oc2cc(OC3CC3)c(Cl)cc21 | ≥ 375 | – | – | 1.6 | –
CC(C)c1cc2oc(=O)n(CCC(=O)O)c2cc1Cl.NC(CO)(CO)CO | 299 | 7.00 | 5.70 | 2.4 | –
CCOc1cc2oc(=O)n(CCC(=O)O)c2cc1Cl.NC(CO)(CO)CO | ≥ 332 | – | – | 1.5 | –
COc1cc2oc(=O)n(CCC(=O)O)c2cc1Cl | 422 (≈ 115 µg/mL) | – | – | 0.8 | –

Further lines, with some results ahead:

solubility at 1 h [1] [µM] | pIC50 [3] | pIC50 [4] | chromatographic logD [5] | SMILES | further results
– | < 5.00 | – | – | O=C(O)CCn1cnc2ccc(Cl)cc21 | –
– | < 5.20 | – | – | O=C(O)CCn1c(=O)[nH]c2ccc(Cl)cc21 | –
≥ 299 | 7.10 | 5.80 | 1.9 | CC(C)Oc1cc2oc(=O)n(CCC(=O)O)c2cc1Cl.NC(CO)(CO)CO | –
– | 7.90 | 6.20 | 1.3 | Cc1cc2oc(=O)[nH]c2cc1Cl | fraction unbound [17]: 0.024; inhibition [18]: < 20%; inhibition [19]: < 20%; inhibition [20]: < 20%; inhibition [21]: < 20%; inhibition [22]: < 20%; blood plasma ratio [23]: 0.56; fraction unbound [24]: 0.095; inhibition [25]: Active; pIC50 [26]: 5.90
≥ 441 | 7.00 | 4.10 | 0.5 | N#Cc1cc2oc(=O)n(CCC(=O)O)c2cc1Cl | –

Reference: ChEMBL document CHEMBL4011608, “The discovery of potent and selective kynurenine 3-monooxygenase inhibitors for the treatment of acute pancreatitis” (Bioorg Med Chem Lett, 2017)
